Results: patent US9695395B2, “Generation and maintenance of stem cells” (The Scripps Research Institute, priority 2008, dated 2017)

Experiments:
[1] = tested on: BMP receptors; settings: Tojo et al., 2005; cited from earlier work
[2] = tested on: EpiSCs; experiment: Conversion of EpiSCs to mESC-like state by chemical compounds (colony morphology, ALP, selection); type: cell-based, murine; settings: for effect on EpiSCs under mESC culture condition supplemented with LIF: feeder cells, 0.5 μM A-83-01, 0.5 μM PD0325901, 0.1 μM PD173074, 3 μM CHIR99021 where present
Description: EpiSCs differentiated in conventional mESC growth medium supplemented with LIF (bottom left); EpiSCs differentiated in conventional mESC growth medium supplemented with LIF and 0.5 μM MEK inhibitor PD0325901, 0.1 μM FGFR inhibitor PD173074 and 3 μM GSK3 inhibitor CHIR99021 (m/MFGi) (bottom right). […] EpiSCs were trypsinized to single cells, and plated on feeder cells under the mESC self-renewal condition with supplements of the indicated chemical compounds for about 4 days to induce conversion, followed by another 4 days of selection. The culture was subsequently replated and further selected and expanded for another two weeks, during which time stable clones were picked.
To test this hypothesis, EpiSCs were trypsinized to single cells and plated under mESC self-renewal conditions, based on the notion that “converted” mESC-like cells within EpiSC colonies would be captured/selected and expanded under the conditions that promote self-renewal of mESCs but induce differentiation of EpiSCs. […] Given that the “spontaneous” conversion from EpiSCs to mESCs might be very inefficient, a stronger and more stringent differential self-renewal promoting and differentiation inducing condition might be required to select/capture and expand those “rare” converted mESC-like cells from EpiSCs (e.g. achieving cleaner phenotypic distinction and minimizing the overgrowth of differentiated EpiSCs).
EpiSCs (line EpiSC-5, male) were maintained on irradiated CF1 MEFs in human ESC medium supplemented with 10 ng/ml bFGF as described previously (Tesar et al., Nature 448, 196-199, 2007). EpiSCs were passaged every 3-4 days with 1 mg/ml collagenase type IV (Invitrogen). The R1 mESCs were cultured on irradiated CF1 MEFs with conventional mESC growth media, which consist of Knockout DMEM (Invitrogen) supplemented with 20% KSR (Invitrogen), 0.1 mM 2-ME (Sigma-Aldrich), 2 mM L-glutamine (Invitrogen), 0.1 mM NEAA (Invitrogen), and 10^3 units/ml recombinant murine leukemia inhibitory factor (LIF) (ESGRO, Millipore). The mESCs and converted cells were passaged every 3 days as a single cell suspension using 0.05% trypsin/EDTA and seeded at 1.0×10^4 cells per cm^2 for routine culture.

[3] = tested on: riPSCs; experiment: Maintaining the pluripotency of riPSCs in culture with small molecule combinations; type: cell-based, rat; settings: 0.1 μM, added to the combination of PD0325901 and CHIR99021
Description: FIG. 5A-B. The effects of different small molecule combinations on maintaining the pluripotency of riPSCs in culture. riPSCs were trypsinized into single cells and seeded into 6-well plate at the density of 10^3 cells per well and treated with different inhibitor combinations. Five days latter, ALP staining was performed to visualize the riPSC colonies (A). The ALP positive colonies for each condition were counted from ten random 40× visual fields and the relative colony number was summarized in (B).
WB-F344, a diploid rat liver progenitor cell line (Grisham et al., Proc Soc Exp Biol Med 204, 270-279 (1993)), were transduced with Oct4, Sox2 and Klf4 by retroviruses and then split onto MEF feeder cells in the conventional mESC medium. Compact and alkaline phosphatase (ALP) positive ESC-like colonies were observed 10 days after transduction (the efficiency is about 0.4%) (FIG. 1A). […] Given the notion that small molecules can inhibit key differentiation-inducing pathways, we and others have previously identified and used small molecules to support mESC self-renewal in a more robust manner (Schugar et al., Gene Ther 15, 126-135 (2008); Xu et al., Nat Biotechnol 20, 1261-1264 (2002)). […]

For Cc1cccc(-c2nn(C(=S)Nc3ccccc3)cc2-c2ccnc3ccccc23)n1 [A-83-01, 3-(6-Methyl-2-pyridinyl)-N-phenyl-4-(4-quinolinyl)-1H-pyrazole-1-carbothioamide], the “cross inhibitory effect on the BMP receptors” value [1] is listed as “no cross inhibitory effect”, the “effect on EpiSCs under EpiSC/hESC culture condition supplemented with bFGF” value ([2]; 0.5 μM) is listed as “induced rapid differentiation of EpiSCs” and the “colonies that could self-renew and maintain ALP activity” value ([2]; A-83-01 treated colonies exposed to 2PD/LIF condition for selection) is listed as “more than 50%”. The “effect on EpiSCs under mESC culture condition supplemented with LIF” value [2] was “form more compact and domed colonies that resemble mESC colony morphology and express ALP”.
For CCN(CC)CCCCNc1ncc2cc(-c3cc(OC)cc(OC)c3)c(NC(=O)NC(C)(C)C)nc2n1 [PD173074], the “effect of including PD173074 in medium” value [3] was “didn't show further benefit”.
For Cc1c[nH]c(-c2cnc(NCCNc3ccc(C#N)cn3)nc2-c2ccc(Cl)cc2Cl)n1 [CHIR99021], the “effect of adding CHIR99021 to the 2PD/LIF condition” value ([2]; 3 μM CHIR99021) was “did not promote or capture the conversion of EpiSCs to mESC-like state”.
For N[C@@H]1C[C@H]1c1ccccc1 [parnate], the “effect on EpiSCs under mESC culture condition supplemented with LIF” value [2] was “form more compact and domed colonies that express ALP”, the “EpiSCs that formed small and compact colonies” value ([2]; four days of 2 μM parnate treatment, mESC growth condition) was 70-80% and the “cells that survived the selection as domed and ALP positive colonies” value ([2]; parnate-treated cells selected with 2PD/LIF) was “roughly 20%”.
